{"source": "patent US20260085315A1", "about": "“POLYNUCLEOTIDE COMPOSITIONS AND METHODS FOR TREATMENT OF CANCER” (APTAH BIO, INC., priority 2023, published 2026)", "key": {"GFAP": {"test_system": "GFAP", "assay": "ELISA of tumor tissue homogenate", "assay_type": "in vivo, Human", "conditions": "in relation to the non-treated control", "description": "For the assessment of biomarkers such as cAMP, AKT, GFAP, and TAU by ELISA, the U-87MG tumor tissues dissected out from the animals were homogenized according to kit instructions. The homogenates were centrifugated, and the supernatant was collected and immunoassayed with the Human AKT Protein ELISA Kit (MyByoSouce), cyclic AMP Complete Enzyme-linked Immunosorbent Assay (ELISA) kit (MyByoSouce), Human Glial Fibrillary Acidic Protein (GFAP) ELISA Kit (Cusabio), and Human TAU Protein (TAU) ELISA Kit (MyByoSouce) for the quantitative determination of cAMP, AKT, GFAP, and TAU proteins, respectively.\nAs shown in FIG. 37A-D, the graphs present the individual values of protein quantification of tumors from 6 animals. (A) cAMP, (B) […], (C) GFAP, and (D) TAU."}, "MCF-7 cell line [1]": {"test_system": "MCF-7 cell line", "assay": "Internalization of carboxyfluorescein-conjugated APT20TTMG by flow cytometry", "assay_type": "cell-based, Human", "conditions": "1 μM carboxyfluorescein conjugate", "description": "To investigate the internalization of ASMO APT20TTMG by MCF-7 cell line, the quantification of intracellular fluorescence was measured by flow cytometry. For this aim, the ASMO APT20TTMG was conjugated to the fluorochrome carboxyfluorescein. It is assumed that the percentage of ASMO molecules internalized is presumably proportional to the quantified fluorescence signal detected inside the cells. The cell lines were cultured in 24-well plates for 24 hours at 5×10^4 cells per well. After that, the cells were incubated with ASMO1 prepared in culture medium without FBS at a concentration of 1 μM for 0.5, 1, 2, 4, and 6 hours. Untreated cells were used as negative controls. After treatment incubation, cells were washed twice with 1 mL of PBS/well and then incubated with 200 μL/well of trypsin/EDTA solution for approximately 3 minutes for disaggregation of adherent cells. Trypsin was neutralized by the addition of complete medium and cells were centrifuged at 1500 rpm for 5 minutes. Subsequently, the cells were washed with 2 mL/sample of PBS and centrifuged again at 1500 rpm for 5 minutes. […] The fluorescence of the cells, corresponding to the cellular uptake of the APT20TTMG labeled with carboxyfluorescein, was analyzed using a BD FACSCANTO II Flow cytometer (BD Biosciences, NJ, USA) through the acquisition of 10.000 gated events considering each sample."}, "SH-SY5Y cell line": {"test_system": "SH-SY5Y cell line", "assay": "Apoptosis/necrosis phase distribution", "assay_type": "cell-based, Human", "conditions": "0.25 μM; 24 hours"}, "MAPT": {"test_system": "MAPT", "assay": "MAPT expression by qPCR in SK-N-SH", "assay_type": "cell-based", "conditions": "0.5 μM; for reduction of MAPT expression: relative to Lipofectamine 3000 only", "description": "FIG. 27A-27B illustrates MAPT expression and tau quantification obtained after 24, 48, 96 and 144 hours of incubation with ASMO1 (0.5 μM) in neuroblastoma cell line.\nAt all time points cells were rinsed once with PBS, before proceeding with RNA extraction using the RNeasy Plus Kit (Qiagen). RNA (0.1-1 μg) was converted to cDNA using the SuperScript IV First-Strand Synthesis System (Thermo Fisher), following manufacturer instructions. After RNA removal, 5-10 ng of cDNA were amplified by qPCR. The following Taqman probes (Thermo Fisher) were used: Total TAU (MAPT, Assay ID: Hs00902193_m1), GAPDH (GAPDH, Assay ID: Hs99999905_m1). Gene expression was analyzed using the Applied Biosystems QuantStudio™ 12K Flex Real-Time PCR System. Quantification of gene expression was performed using the comparative threshold cycle (2^-ΔΔCT) Livak method, relative to Lipofectamine 3000 only treated cells. Gene expression was normalized to the reference gene GAPDH."}, "MCF-7 cell line [2]": {"test_system": "MCF-7 cell line", "assay": "Cell cycle assay (propidium iodide, flow cytometry)", "assay_type": "cell-based, Human", "conditions": "0.25 and 0.5 μM; 48 hours; only statistically significant alteration", "description": "Cell cycle assays were performed to understand how the ASMO APT20TTMG affects the cell cycle of MCF-7 cell line and its potential mechanisms of action. Initially, cells were plated in 12-well plates at a density of 5×10^4 cells/well and cultured for 24 hours for adhesion and then treated with three different concentrations of APT20TTMG (0.25, 0.5 and 1.0 μM) for 48 hours. After, cells were collected using a solution of trypsin/EDTA and washed with 2.0 mL of PBS buffer followed by centrifugation at 1500 rpm for 5 minutes. Then, the cells were fixed with ice-cold 70% ethanol and incubated overnight at 4° C. After that, cells were washed again with 2.0 mL of PBS and incubated with Propidium Iodide solution (50 μg/mL) and RNAse (200 μg/mL) for 1 hour at room temperature and protected from light. Finally, the cells were analyzed in a flow cytometer (BD FACSCanto II, BD Biosciences), through the acquisition of 10.000 gated events considering each sample."}, "PC-3 cell line": {"test_system": "PC-3 cell line", "assay": "MTT cytotoxicity assay on human cancer cell panel (Example 2)", "assay_type": "cell-based", "conditions": "24, 48, 72 hours; 0.03-30 μM; 1% FBS", "description": "Cell lines were maintained in growth medium with 10% of Fetal Bovine Serum (FBS) until the time of the experiments. Cells were sub-cultured by trypsinization and splitting the cell suspension into fresh flasks and supplementing with fresh culture medium. To perform the assay, the cells were trypsinized, neutralized with complete medium (10% FBS), centrifuged, counted with assistance of a hemocytometer, and plated with the respective media with 10% FBS. Cell lines were plated at a density of 1×10^4 cells per well, other than the SH-SY5Y cell line which was plated at a density of 2.5×10^4. The preparation of the different experimental groups was done with 0.1% FBS (U87MG, MCF-7, SH-SY5Y and 786-O) and 1% FBS (PC-3). The untreated cells were used as negative control (medium only). After 24, 48, 72 and 96 hours of incubation, the effect of ASMO1 and controls on cytotoxicity of cells was determined by MTT assay.\nBriefly, plates were taken out and 20 μl of 5 mg/ml of MTT 3-(4,5-dimethythiazol-2-yl)-2,5-diphenyl tetrazolium bromide solution was added to all the wells. […] The absorbance of each well was then read at 540 nm using Synergy HT microplate reader.\nCells were plated and treated with 7 different concentrations (0.03, 0.1, 0.3, 1, 3, 10 and 30 μM) of APT20TTMG with medium (1% FBS). MTT assay was performed in 3 distinct times and graphs are represented as absorbance (540 nm). […]"}, "[3]": {"test_system": "neuroblastoma cell line (SK-N-SH)", "assay": "Cell viability over time", "assay_type": "cell-based", "conditions": "0.5 μM; 24, 48, 96, 144 hours; indicating a cytostatic effect", "description": "FIG. 26 illustrates cell viability results obtained after 24, 48, 96 and 144 hours of incubation with ASMO1 (0.5 μM) in neuroblastoma cell line (SK-N-SH)."}}, "note": "d = 2'-deoxy (DNA); m = 2'-O-methyl"}
{"substance": "APT20TTMG: engineered polynucleotide ASMO1, 24 nt, SEQ ID NO: 3 gtccactaacctttcaggccagcg; targeting moieties 5′-GTCCA-3′ and 5′-CG-3′, U1 snRNP recruiting moiety (GTCCACTAACCTTTCAGGCCAGCG; sugars from the 5' end m5 d14 m5, all phosphorothioate, methylation of C and T or U not given here)", "values": [{"measurement": "GFAP in tumor tissue (ELISA)", "setting": "GFAP", "value": "reduction of this biomarker"}, {"measurement": "internalization", "setting": "MCF-7 cell line [1]; after 1 hour and subsequent period (to 6 h)", "value": "around 80%"}, {"measurement": "internalization", "setting": "MCF-7 cell line [1]; first half hour", "value": "75.3±1.4", "unit": "%"}, {"measurement": "necrotic cells", "setting": "SH-SY5Y cell line", "value": "increase in necrotic cells"}, {"measurement": "MAPT expression", "setting": "MAPT; 24 hours", "value": "transient increase"}, {"measurement": "reduction of MAPT expression", "setting": "MAPT; 96 h", "value": "82±1.2", "unit": "%"}, {"measurement": "reduction of MAPT expression", "setting": "MAPT; 144 h", "value": "74±4.3", "unit": "%"}, {"measurement": "cells in S phase of cell cycle", "setting": "MCF-7 cell line [2]", "value": "lower concentration of cells"}, {"measurement": "cytotoxic or cytostatic effect (MTT)", "setting": "PC-3 cell line", "value": "does not exert a cytotoxic or cytostatic effect"}, {"measurement": "number of viable cells", "setting": "[3]", "value": "remains practically the same"}]}
